These are literature values, as cited in US20260198506A1, “Broad-Spectrum Organic Fungicide & Bactericide” (Ecolution.AG LLC, priority 2020, published 2026).

The structures appear in SMILES notation.

For the data set, the system named is Gram-positive bacteria. The conditions noted are these: due to outer cell membrane impermeability of Gram-negatives.

With `O=C(O)C1=C[C@@H](O)[C@@H](O)[C@H](O)C1` [shikimic acid], the antibacterial activity spectrum entry was “active only against Gram-positive bacteria”.
